Measured values taken from patent US4756904A (Oak Ridge Associated Universities, Inc., priority 1986, dated 1988).

System: myocardium
Method: Sixteen closed-chest studies were performed in 6 healthy, adult mongrel dogs of both sexes weighing 15 to 30 kg. The dogs were maintained on a standard laboratory diet which was discontinued 24 hours prior to study. The animals were anesthetized using a combination of xylazine and sodium pentobarbital. Transmission cross-sectional scans of the chest area were performed on each dog with an ECAT II scanner using a ^68 Ge ring source with medium resolution filters and standard shadow shields. Measured attenuation coefficients were used for reconstructing the emission tomographs. […] Serial scans of the heart from base to apex in 10-15 mm steps were made starting 3-5 minutes after injection. After each series was completed, the ECAT II bed was returned to the original position and the dogs were rescanned. This procedure was repeated over a 2 to 4 hour period. Each set of scans required approximately 1 hour for 6 slices, so that 2 to 4 sets of images were obtained in each study. Sequential images were also obtained through a 20-mm section of the heart over a 2-hour period. Additional images from 1 dog were obtained using the new high-resolution ECAT III scanner. […] The animals were injected through a cannula or catheter in the leg and heparanized venous blood samples were removed from the opposite side. Known aliquots of whole blood, plasma, and erythrocytes were assayed in a well-type scintillation counter to determine the ^64 Cu levels present in the different components.

Substance: copper-64 citrate [^64 Cu citrate]
- image quality with the PET (^64 Cu citrate, PET): unexpectedly distinct image
- useful images of the myocardium (dog): yields useful images of the myocardium
- uptake by the myocardium (dog, intravenous, tomographic images): rapid and uniform uptake of the compound throughout the myocardium
- uptake by myocardial tissue over time (dog, over the time periods studied): occurs quite rapidly and remains constant over the time periods studied
- visibility of the left ventricle in the emission scan (dog, transverse section): very distinctly
- visibility of the right ventricle in the emission scan (dog, transverse section): less clearly seen
